Data taken from patent publication US20250304620A1, “ANTIMICROBIAL PEPTIDE AND APPLICATION THEREOF” (priority 2023, published 2025).
Converted amounts (≈) assume the structure as drawn. Non-standard residues stand in square brackets, D forms with d. Residues, ends and D or L forms follow the SMILES beside them. dPhe(3,4-F2) = N[C@H](Cc1ccc(F)c(F)c1)C(=O)O; d2Nal = N[C@H](Cc1ccc2ccccc2c1)C(=O)O

Columns and labels:
[1] = tested on: Staphylococcus aureus (NRS 384); assay: microbe, parasite or virus in culture; type: cell-based; conditions: NRS 384
Outline: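 MICs were read against S. aureus strain NRS 384 using twofold serial dilution by CLSI microdilution rules. Levofloxacin and Cbf-K16 were the reference controls, and the test was repeated 5 times in parallel.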

[2] = tested on: Bacillus subtilis ATCC 6633; type: cell-based
Outline: (§1)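 Susceptibility testing used the CLSI-standard microdilution method with twofold serial dilutions of the antimicrobial peptides to give MIC values, replicated 5 times in parallel.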

[3] = tested on: Candida albicans ATCC MYA-2876; type: cell-based
Outline: as §1

[4] = tested on: Candida glabrata ATCC 15126; type: cell-based
Outline: as §1

[5] = tested on: Candida krusei ATCC 6258; type: cell-based
Outline: as §1

[6] = tested on: Candida tropicalis ATCC 750; type: cell-based
Outline: as §1

[7] = tested on: Candida utilis ATCC 9950; type: cell-based
Outline: as §1

[8] = tested on: Corynebacterium ATCC 7715; type: cell-based
Outline: as §1

[9] = tested on: Enterococcus ATCC 29212; type: cell-based
Outline: as §1

[10] = tested on: Escherichia coli ATCC 25922; type: cell-based
Outline: as §1

[11] = tested on: Klebsiella pneumoniae ATCC 700603; type: cell-based
Outline: as §1

[12] = tested on: Pseudomonas aeruginosa ATCC 27853; type: cell-based
Outline: as §1

[13] = tested on: Salmonella typhimurium ATCC 14028; type: cell-based
Outline: as §1

[14] = tested on: Serratia marcescens ATCC 29021; type: cell-based
Outline: as §1

[15] = tested on: Staphylococcus aureus ATCC 25923; type: cell-based
Outline: as §1

[16] = tested on: Trichophyton ATCC MYA-4438; type: cell-based
Outline: as §1

[17] = tested on: Shigella flexneri ATCC 12022; assay: MIC against clinically common bacterial strain; type: cell-based
Outline: as §1

[18] = tested on: Methicillin-resistant Staphylococcus aureus (MRSA); type: cell-based; conditions: Methicillin-resistant
Outline: (§2)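 Read-out is the minimum inhibitory concentration, obtained by twofold serial dilution in microdilution format per CLSI guidance, with five parallel runs.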

[19] = tested on: carbapenem-resistant Escherichia coli (CREC); type: cell-based; conditions: carbapenem-resistant (CREC)
Outline: as §2

[20] = tested on: carbapenem-resistant Klebsiella pneumoniae (CRKP); type: cell-based; conditions: carbapenem-resistant (CRKP)
Outline: as §2

[21] = tested on: carbapenem-resistant Pseudomonas aeruginosa (CRPA); type: cell-based; conditions: carbapenem-resistant (CRPA)
Outline: as §2

[22] = tested on: vancomycin-resistant Enterococcus (VRE); type: cell-based
Outline: as §2

[23] = tested on: Staphylococcus aureus (NRS 384); conditions: NRS 384, 3 h
Experimental: Trypsin (250 U/mg, pH=8.0) and AMPs (LV-1 to LV-30) were mixed in a ratio of 1:10 (w/w) and added to a reaction buffer (0.2 M sodium phosphate, 1 mM CaCl2), pH 7.5), and then incubated at 37° C. for 3 h.

[24] = Serum stability assay (residual level by RP-HPLC); conditions: human

Row | SMILES | MIC against Staphylococcus aureus (NRS 384) [1] [µg/mL] | MIC Bacillus subtilis ATCC 6633 [2] [µg/mL] | MIC Candida albicans ATCC MYA-2876 [3] [µg/mL] | MIC Candida glabrata ATCC 15126 [4] [µg/mL] | MIC Candida krusei ATCC 6258 [5] [µg/mL] | MIC Candida tropicalis ATCC 750 [6] [µg/mL] | MIC Candida utilis ATCC 9950 [7] [µg/mL] | MIC Corynebacterium ATCC 7715 [8] [µg/mL] | MIC Enterococcus ATCC 29212 [9] [µg/mL] | MIC Escherichia coli ATCC 25922 [10] [µg/mL] | MIC Klebsiella pneumoniae ATCC 700603 [11] [µg/mL] | MIC Pseudomonas aeruginosa ATCC 27853 [12] [µg/mL] | MIC Salmonella typhimurium ATCC 14028 [13] [µg/mL] | MIC Serratia marcescens ATCC 29021 [14] [µg/mL] | MIC Staphylococcus aureus ATCC 25923 [15] [µg/mL] | MIC Trichophyton ATCC MYA-4438 [16] [µg/mL] | MIC Shigella flexneri ATCC 12022 [17] [µg/mL] | MIC MRSA [18] [µg/mL] | MIC CREC [19] [µg/mL] | MIC CRKP [20] [µg/mL] | further results
1 | CC(=O)N[C@H](CCCCN)C(=O)N[C@H](CCCNC(=N)N)C(=O)N[C@H](CC(C)C)C(=O)N[C@H](CC(C)C)C(=O)N[C@H](Cc1ccc2ccccc2c1)C(=O)N[C@H](CCCCN)C(=O)N[C@H](CC(C)C)C(=O)N[C@H](CCCCN)C(=O)N[C@H](Cc1ccc2ccccc2c1)C(=O)N[C@H](CCCCN)C(=O)N[C@H](CCCNC(=N)N)C(N)=O [LV-23] (Ac-[dK][dR][dL][dL][d2Nal][dK][dL][dK][d2Nal][dK][dR]-NH2) | 1 (≈ 0.618 µM) | 4 (≈ 2.47 µM) | 16 (≈ 9.89 µM) | 8 (≈ 4.94 µM) | 4 (≈ 2.47 µM) | 4 (≈ 2.47 µM) | 8 (≈ 4.94 µM) | 4 (≈ 2.47 µM) | 8 (≈ 4.94 µM) | 2 (≈ 1.24 µM) | 4 (≈ 2.47 µM) | 2 (≈ 1.24 µM) | 2 (≈ 1.24 µM) | 8 (≈ 4.94 µM) | 1 (≈ 0.618 µM) | 16 (≈ 9.89 µM) | 2 (≈ 1.24 µM) | 4 (≈ 2.47 µM) | 2 (≈ 1.24 µM) | 8 (≈ 4.94 µM) | MIC CRPA [21]: 4 µg/mL (≈ 2.47 µM); MIC VRE [22]: 4 µg/mL (≈ 2.47 µM); Trypsin MIC [23]: 1 µg/mL; remaining at 12 h, 0.91 mg/mL [24]: 97.5%
2 | CC(=O)N[C@H](CCCNC(=N)N)C(=O)N[C@H](CCCNC(=N)N)C(=O)N[C@H](CC(C)C)C(=O)N[C@H](CC(C)C)C(=O)N[C@H](Cc1ccc2ccccc2c1)C(=O)N[C@H](CCCCN)C(=O)N[C@H](CC(C)C)C(=O)N[C@H](CCCCN)C(=O)N[C@H](Cc1ccc2ccccc2c1)C(=O)N[C@H](CCCCN)C(=O)N[C@H](CCCNC(=N)N)C(N)=O [LV-24] (Ac-[dR][dR][dL][dL][d2Nal][dK][dL][dK][d2Nal][dK][dR]-NH2) | 1 (≈ 0.607 µM) | 2 (≈ 1.21 µM) | 8 (≈ 4.86 µM) | 4 (≈ 2.43 µM) | 8 (≈ 4.86 µM) | 8 (≈ 4.86 µM) | 8 (≈ 4.86 µM) | 4 (≈ 2.43 µM) | 4 (≈ 2.43 µM) | 1 (≈ 0.607 µM) | 4 (≈ 2.43 µM) | 2 (≈ 1.21 µM) | 1 (≈ 0.607 µM) | 2 (≈ 1.21 µM) | 1 (≈ 0.607 µM) | 4 (≈ 2.43 µM) | 2 (≈ 1.21 µM) | 4 (≈ 2.43 µM) | 8 (≈ 4.86 µM) | 4 (≈ 2.43 µM) | MIC CRPA [21]: 8 µg/mL (≈ 4.86 µM); MIC VRE [22]: 2 µg/mL (≈ 1.21 µM); Trypsin MIC [23]: 1 µg/mL; remaining at 12 h, 0.91 mg/mL [24]: 98.3%
3 | CC(=O)N[C@H](CCCCN)C(=O)N[C@H](CCCCN)C(=O)N[C@H](CC(C)C)C(=O)N[C@H](CC(C)C)C(=O)N[C@H](Cc1ccc(F)c(F)c1)C(=O)N[C@H](CCCNC(=N)N)C(=O)N[C@H](CC(C)C)C(=O)N[C@H](CCCCN)C(=O)N[C@H](Cc1ccc(F)c(F)c1)C(=O)N[C@H](CCCNC(=N)N)C(=O)N[C@H](CCCCN)C(N)=O [LV-25] (Ac-[dK][dK][dL][dL][dPhe(3,4-F2)][dR][dL][dK][dPhe(3,4-F2)][dR][dK]-NH2) | 1 (≈ 0.629 µM) | 8 (≈ 5.03 µM) | 8 (≈ 5.03 µM) | 8 (≈ 5.03 µM) | 8 (≈ 5.03 µM) | 8 (≈ 5.03 µM) | 8 (≈ 5.03 µM) | 2 (≈ 1.26 µM) | 2 (≈ 1.26 µM) | 1 (≈ 0.629 µM) | 8 (≈ 5.03 µM) | 1 (≈ 0.629 µM) | 1 (≈ 0.629 µM) | 4 (≈ 2.52 µM) | 2 (≈ 1.26 µM) | 8 (≈ 5.03 µM) | 2 (≈ 1.26 µM) | 2 (≈ 1.26 µM) | 4 (≈ 2.52 µM) | 8 (≈ 5.03 µM) | MIC CRPA [21]: 4 µg/mL (≈ 2.52 µM); MIC VRE [22]: 8 µg/mL (≈ 5.03 µM); Trypsin MIC [23]: 1 µg/mL; remaining at 12 h, 0.91 mg/mL [24]: 97.8%
